{
  "source": "patent US12655116B2",
  "about": "“Substituted isophthalic acid diamides” (Bayer Aktiengesellschaft, priority 2020, dated 2026)",
  "key": {"ABUTH [1]": {"test_system": "ABUTH", "experiment": "Pre-emergence herbicidal action against ABUTH", "assay_type": "in vivo, Abutilon theophrasti", "conditions": "for Pre-emergence action against ABUTH (herbicidal activity): 80 g/ha, scored visually after 3 weeks vs untreated controls (100% = plants have died, 0% = like control plants); for Pre-emergence action against ABUTH (herbicidal activity in percent): dosage 20 g/ha, scored visually after 3 weeks vs untreated controls, 100% = plants have died, 0% = like control plants", "in_short": "(§1)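 Greenhouse pots of sandy loam held seeds covered with soil, onto which the compound was applied before emergence. An aqueous suspension or emulsion of WP or EC was used at 600 to 800 l/ha with 0.2% wetting agent. Percent damage was judged visually at 3 weeks.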"}, "ALOMY [2]": {"test_system": "ALOMY", "experiment": "Post-emergence herbicidal action against ALOMY", "assay_type": "in vivo, Alopecurus myosuroides", "conditions": "dosage 20 g/ha, visual assessment about 3 weeks after treatment vs untreated controls", "description": "Seeds of monocotyledonous and dicotyledonous weed and crop plants are laid out in sandy loam soil in wood-fiber pots, covered with soil and cultivated in a greenhouse under good growth conditions. 2 to 3 weeks after sowing, the test plants are treated at the one-leaf stage. The compounds of the invention, formulated in the form of wettable powders (WP) or as emulsion concentrates (EC), are then sprayed onto the green parts of the plants in the form of an aqueous suspension or emulsion at a water application rate equivalent to 600 to 800 l/ha, with addition of 0.2% wetting agent. After the test plants have been left to stand in the greenhouse under optimal growth conditions for about 3 weeks, the action of the preparations is assessed visually in comparison to untreated controls (herbicidal action in percent (%): 100% activity=the plants have died, 0% activity=like control plants). […] The tables below illustrate, in an illustrative manner, the post-emergence herbicidal action of the compounds of the invention, the herbicidal activity being stated in percent."}, "AMARE [3]": {"test_system": "AMARE", "experiment": "Post-emergence herbicidal action against AMARE", "assay_type": "in vivo, Amaranthus retroflexus", "conditions": "20 g/ha, visual assessment about 3 weeks after treatment, 100% = plants have died, 0% = like control plants", "in_short": "(§2)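 Foliar application at one-leaf stage of formulated test compounds, aqueous spray at 600–800 l/ha with 0.2% wetting agent. Greenhouse, optimal conditions, ~3 weeks; damage scored visually in % relative to untreated plants.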"}, "AMARE [4]": {"test_system": "AMARE", "experiment": "Pre-emergence herbicidal action against AMARE", "assay_type": "in vivo, Amaranthus retroflexus", "in_short": "as §1"}, "VIOTR": {"test_system": "VIOTR", "experiment": "Pre-emergence herbicidal action against VIOTR", "assay_type": "in vivo, Viola tricolor", "conditions": "dosage 80 g/ha", "in_short": "as §1"}, "MATIN": {"test_system": "MATIN", "experiment": "Pre-emergence herbicidal action against MATIN", "assay_type": "in vivo, Matricaria inodora", "in_short": "as §1"}, "DIGSA": {"test_system": "DIGSA", "experiment": "Pre-emergence herbicidal action against DIGSA", "assay_type": "in vivo, Digitaria sanguinalis", "conditions": "dosage 80 g/ha", "in_short": "as §1"}, "SETVI [5]": {"test_system": "SETVI", "experiment": "Post-emergence herbicidal action against SETVI", "assay_type": "in vivo, Setaria viridis", "conditions": "dosage 20 g/ha", "in_short": "as §2"}, "ALOMY [6]": {"test_system": "ALOMY", "experiment": "Pre-emergence herbicidal action against ALOMY", "assay_type": "in vivo, Alopecurus myosuroides", "conditions": "80 g/ha, pre-emergence, scored visually after 3 weeks vs untreated controls (100% = plants have died, 0% = like control plants)", "in_short": "as §1"}, "ECHCG [7]": {"test_system": "ECHCG", "experiment": "Post-emergence herbicidal action against ECHCG", "assay_type": "in vivo, Echinochloa crus-galli", "in_short": "as §2"}, "ABUTH [8]": {"test_system": "ABUTH", "experiment": "Post-emergence herbicidal action against ABUTH", "assay_type": "in vivo, Abutilon theophrasti", "conditions": "dosage 20 g/ha, visual assessment about 3 weeks after treatment vs untreated controls", "in_short": "as §2"}, "SETVI [9]": {"test_system": "SETVI", "experiment": "Pre-emergence herbicidal action against SETVI", "assay_type": "in vivo, Setaria viridis", "conditions": "dosage 80 g/ha", "in_short": "as §1"}, "ECHCG [10]": {"test_system": "ECHCG", "experiment": "Pre-emergence herbicidal action against ECHCG", "assay_type": "in vivo, Echinochloa crus-galli", "in_short": "as §1"}, "PHBPU": {"test_system": "PHBPU", "experiment": "Post-emergence herbicidal action against PHBPU", "assay_type": "in vivo, Pharbitis purpurea", "conditions": "dosage 20 g/ha", "in_short": "as §2"}, "[11]": {"conditions": "20 g/ha, scored visually after 3 weeks vs untreated controls, 100% = plants have died, 0% = like control plants"}, "[12]": {"conditions": "80 g/ha, scored visually after 3 weeks vs untreated controls (100% = plants have died, 0% = like control plants)"}},
  "data": [
    {"smiles": "CN(C)C(=O)CNC(=O)c1c(C(F)F)ccc(C(=O)Nc2nnnn2C)c1Cl", "note": "[Example 1-160]", "values": [
      {"measurement": "Pre-emergence action against ABUTH (herbicidal activity)", "setting": "ABUTH [1]", "result": 80, "unit": "%"},
      {"measurement": "Post-emergence action against ALOMY in %", "setting": "ALOMY [2]", "result": 80, "unit": "%"},
      {"measurement": "Post-emergence action at 20 g/ha against AMARE in %", "setting": "AMARE [3]", "result": 100, "unit": "%"},
      {"measurement": "Pre-emergence action against AMARE in %", "setting": "AMARE [4]; [11]", "result": 100, "unit": "%"},
      {"measurement": "Pre-emergence action against AMARE in %", "setting": "AMARE [4]; [12]", "result": 100, "unit": "%"},
      {"measurement": "Pre-emergence action against VIOTR in %", "setting": "VIOTR", "result": 80, "unit": "%"},
      {"measurement": "Pre-emergence action against MATIN in %", "setting": "MATIN; dosage 80 g/ha", "result": 80, "unit": "%"}
    ]},
    {"smiles": "CCn1nnnc1NC(=O)c1ccc(C(F)(F)F)c(C(=O)NCC#N)c1C", "note": "[Example 2-36]", "values": [
      {"measurement": "Pre-emergence action against ABUTH (herbicidal activity)", "setting": "ABUTH [1]", "result": 100, "unit": "%"},
      {"measurement": "Pre-emergence action against ABUTH (herbicidal activity in percent)", "setting": "ABUTH [1]", "result": 90, "unit": "%"},
      {"measurement": "Post-emergence action against ALOMY in %", "setting": "ALOMY [2]", "result": 90, "unit": "%"},
      {"measurement": "Post-emergence action at 20 g/ha against AMARE in %", "setting": "AMARE [3]", "result": 90, "unit": "%"},
      {"measurement": "Pre-emergence action against DIGSA in %", "setting": "DIGSA", "result": 90, "unit": "%"},
      {"measurement": "Pre-emergence action against AMARE in %", "setting": "AMARE [4]; [11]", "result": 100, "unit": "%"},
      {"measurement": "Pre-emergence action against AMARE in %", "setting": "AMARE [4]; [12]", "result": 100, "unit": "%"},
      {"measurement": "Pre-emergence action against VIOTR in %", "setting": "VIOTR", "result": 100, "unit": "%"},
      {"measurement": "Pre-emergence action against MATIN in %", "setting": "MATIN; dosage 80 g/ha", "result": 90, "unit": "%"}
    ]},
    {"smiles": "Cc1nnc(NC(=O)c2ccc(C(F)(F)F)c(C(=O)NCC3CC3)c2Br)o1", "note": "[Example 6-161]", "values": [
      {"measurement": "Pre-emergence action against ABUTH (herbicidal activity)", "setting": "ABUTH [1]", "result": 100, "unit": "%"},
      {"measurement": "Pre-emergence action against ABUTH (herbicidal activity in percent)", "setting": "ABUTH [1]", "result": 100, "unit": "%"},
      {"measurement": "Post-emergence action against SETVI in %", "setting": "SETVI [5]", "result": 90, "unit": "%"},
      {"measurement": "Pre-emergence action against ALOMY (herbicidal activity)", "setting": "ALOMY [6]", "result": 90, "unit": "%"},
      {"measurement": "Post-emergence action against ALOMY in %", "setting": "ALOMY [2]", "result": 90, "unit": "%"},
      {"measurement": "Post-emergence action against ECHCG in %", "setting": "ECHCG [7]; dosage 5 g/ha", "result": 90, "unit": "%"},
      {"measurement": "Post-emergence action against ECHCG in %", "setting": "ECHCG [7]; dosage 20 g/ha", "result": 90, "unit": "%"},
      {"measurement": "Post-emergence action at 20 g/ha against AMARE in %", "setting": "AMARE [3]", "result": 100, "unit": "%"},
      {"measurement": "Post-emergence action against ABUTH in %", "setting": "ABUTH [8]", "result": 90, "unit": "%"},
      {"measurement": "Pre-emergence action against SETVI in %", "setting": "SETVI [9]", "result": 100, "unit": "%"},
      {"measurement": "Pre-emergence action against ECHCG in %", "setting": "ECHCG [10]; 20 g/ha", "result": 80, "unit": "%"},
      {"measurement": "Pre-emergence action against ECHCG in %", "setting": "ECHCG [10]; 80 g/ha", "result": 100, "unit": "%"},
      {"measurement": "Pre-emergence action against AMARE in %", "setting": "AMARE [4]; [11]", "result": 100, "unit": "%"},
      {"measurement": "Pre-emergence action against AMARE in %", "setting": "AMARE [4]; [12]", "result": 100, "unit": "%"},
      {"measurement": "Pre-emergence action against VIOTR in %", "setting": "VIOTR", "result": 80, "unit": "%"},
      {"measurement": "Post-emergence action against PHBPU in %", "setting": "PHBPU", "result": 80, "unit": "%"},
      {"measurement": "Pre-emergence action against MATIN in %", "setting": "MATIN; dosage 20 g/ha", "result": 100, "unit": "%"},
      {"measurement": "Pre-emergence action against MATIN in %", "setting": "MATIN; dosage 80 g/ha", "result": 100, "unit": "%"}
    ]}
  ]
}
